Results reported in patent publication US7868139B2, “Compositions and methods for the identification and treatment of immune-mediated inflammatory diseases” (UAB Research Foundation, priority 2006, dated 2011).
“Also recorded” adds a separate entry of the source. Peptide text beside a SMILES is read from it. * marks the point of attachment. Cbz = O=C(OCc1ccccc1)*; OtBu = CC(C)(C)O*

What was measured:
NF-κB p65 = experiment: Measurement of nuclear NF-κB p65 in BMDC; type: cell-based, mouse; settings: 1 μg/ml LPS plus 1 μM PSI for 60 min, compared to control
Protocol: Measurement of nuclear NF-κB—BMDC were treated with media alone, 1 μg/ml LPS, or LPS plus 1 μM PSI for 60 min. The nuclear extracts were made by using TransFactor Extraction Kit (Clontech Laboratories, Inc., Palo Alto, Calif.) based on the protocol recommended by the manufacturer. NF-κB p65 was measured by using Mercury TransFactor Kits (Clontech Labs, Inc., Palo Alto, Calif.) according to manufacturer's protocol.

BMDC = experiment: Maturation of LPS-stimulated BMDC (costimulatory molecules, cytokines); type: cell-based, mouse; settings: PSI-pulsed BMDC stimulated with LPS
[1] = system: DO11.10.RAG2−/− CD4^+ T cells; experiment: T cell proliferation assay with PSI-pretreated, OVA peptide-pulsed BMDC; type: cell-based, mouse; settings: BMDC pretreated with 1 μM PSI 4 hrs, then OVA peptide 20 hrs; p<0.005
Protocol: Generation of PSI-APC Treg cells—BMDC generated from BALB/c mice were treated with 1 μM PSI dissolved in DMSO for 4 hrs and then 5 μg/ml OVA peptide for additional 20 hrs at 1×10^6/ml. After washing twice, the pretreated BMDC were added at 1×10^5/ml into cultures of 1×10^6 freshly isolated CD4^+ T cells from DO11.10.RAG2^−/− mice. Seven days later, the CD4^+ T cells were re-isolated with CD4-magnet beads (Pharmingen, San Diego, Calif.) and used to test for regulatory activity (PSI-APC Treg). Freshly isolated CD4^+ T cells from DO11.10.RAG2^−/− mice were also cultured with 5 μg/ml OVA peptide-pulsed BMDC as control, and used as memory T cells (Them).
After 4 d of incubation, 0.5 μCi of ^3H-thymidine was added to each culture for the last 18 hr of the incubation period. The cells were harvested on glass fiber filters on a PHD cell harvested (Cambridge Technology, Watertown, Mass.) and proliferation was assessed as the amount of incorporation of ^3H-thymidine into cell DNA, as measured by beta scintillation counting of the harvested samples. Data are expressed as CPM±SD.

DO11.10 CD4^+ T cells = experiment: T cell cytokine assays (ELISA of culture supernatants); type: cell-based, mouse; settings: PSI-pretreated, OVA peptide-pulsed BMDC
Protocol: […] The culture supernatants (SN) were collected at different times and pooled together for assay. SN collected after 24 hr of culture were used for IL-2 assay and SN collected at 72 h of culture were used for IL-10, IL-4, and IFNγ assays. The cytokine content in SN was determined by ELISA as previously described by Cong et al. (Cong et al., CD4+ T cells reactive to enteric bacterial antigens in spontaneously colitic C3H/HeJBir mice: increased T helper cell type 1 response and ability to transfer disease. Journal of Experimental Medicine 187:855 (1998).

mice = settings: mouse, in vivo
Splenic CD4^+ T cells = experiment: Antigen-specific proliferation of splenic CD4+ T cells (3H-thymidine); type: cell-based, mouse

Row | Molecule | NF-κB p65 in nuclear extracts (NF-κB p65) | IL-10 production by BMDC (BMDC) | IL-12p70 cytokine production (BMDC) | expression of costimulatory molecules CD40, CD86 and MHC class II (BMDC) | naïve CD4+ T cell proliferation to OVA peptide-pulsed BMDC [1] | T cell IL-4 production (DO11.10 CD4^+ T cells) | reduction of T cell IFNα production (DO11.10 CD4^+ T cells) [%] | reduction of T cell IL-2 production (DO11.10 CD4^+ T cells) [%] | reduction of T cell IL-10 production (DO11.10 CD4^+ T cells) [%] | intestinal IgA response to OVA (mice) | serum IgG response to OVA (mice) | median stimulation index (Splenic CD4^+ T cells; post immunization (day 35), 50 μg/ml antigen) | T cell proliferative response, stimulation index (SI) (Splenic CD4^+ T cells; unimmunized mice)
1 | CC[C@H](C)[C@H](NC(=O)OCc1ccccc1)C(=O)N[C@@H](CCC(=O)OC(C)(C)C)C(=O)N[C@@H](C)C(=O)N[C@H](C=O)CC(C)C [PSI, benzyloxycarbonyl-isoleucyl-glutamyl(O-tert-butyl)-alanyl-leucinal] (Cbz-IE(OtBu)AL-aldehyde) | inhibited BMDC NF-κβ activation; also recorded: reduced levels of NF-κB p65 | not affected | did not upregulate | did not upregulate | inhibited T cell proliferation and cytokine production; also recorded: greatly decreased | no IL-4 production | 81 | 89 | 79 | – | – | – | –
2 | cholera toxin [CT] | – | – | – | – | – | – | – | – | – | strong intestinal IgA response | strong serum IgG response to OVA | – | –
3 | ovalbumin (protein, UniProt P01012 2-386, looked up, internal positive control antigen; exogenous foreign neoantigen) Ovalbumin: GSIGAASMEFCFDVFKELKVHHANENIFYCPIAIMSALAMVYLGAKDSTRTQINKVVRFDKLPGFGDSIEAQCGTSVNVHSSLRDILNQITKPNDVYSFSLASRLYAEERYPILPEYLQCVKELYRGGLEPINFQTAADQARELINSWVESQTNGIIRNVLQPSSVDSQTAMVLVNAIVFKGLWEKAFKDEDTQAMPFRVTEQESKPVQMMYQIGLFRVASMASEKMKILELPFASGTMSMLVLLPDEVSGLEQLESIINFEKLTEWTSSNVMEERKIKVYLPRMKMEEKYNLTSVLMAMGITDVFSSSANLSGISSAESLKISQAVHAAHAEINEAGREVVGSAEAGVDAASVSEEFRADHPFLFCIKHIATNAVLFFGRCVSP | – | – | – | – | – | – | – | – | – | virtually no intestinal IgA to OVA | no serum IgG response to OVA | 17.1 | < 3
